Experimental data from the supplement of paper PMC13380429.

Legend:
Conditions in all cases: 72 h
HepG2 [1] = test: drug sensitivity score (DSS) for viability; higher = more toxic; extreme values may be limits of the assay
Vero E6 [2] = test: as above
Calu-3 [3] = test: as above
U2OS [4] = test: as above
Caco-2 [5] = test: as above
HepG2 [6] = test: cell viability relative to DMSO; higher = less toxic
Vero E6 [7] = test: as above
Calu-3 [8] = test: as above
U2OS [9] = test: as above
Caco-2 [10] = test: as above
HepG2 [11] = test: relative viability EC50 (midpoint between 100% and the lowest measured viability); higher = less toxic
Vero E6 [12] = test: as above
Calu-3 [13] = test: as above
U2OS [14] = test: as above
Caco-2 [15] = test: as above

Row | SMILES | drug sensitivity score (HepG2 [1]) | drug sensitivity score (Vero E6 [2]) | drug sensitivity score (Calu-3 [3]) | drug sensitivity score (U2OS [4]) | drug sensitivity score (Caco-2 [5]) | cell viability (HepG2 [6]; 1 nM) [%] | cell viability (HepG2 [6]; 10 nM) [%] | cell viability (HepG2 [6]; 100 nM) [%] | cell viability (HepG2 [6]; 1000 nM) [%] | cell viability (HepG2 [6]; 10000 nM) [%] | cell viability (Vero E6 [7]; 1 nM) [%] | cell viability (Vero E6 [7]; 10 nM) [%] | cell viability (Vero E6 [7]; 100 nM) [%] | cell viability (Vero E6 [7]; 1000 nM) [%] | cell viability (Vero E6 [7]; 10000 nM) [%] | cell viability (Calu-3 [8]; 1 nM) [%] | cell viability (Calu-3 [8]; 10 nM) [%] | cell viability (Calu-3 [8]; 100 nM) [%] | cell viability (Calu-3 [8]; 1000 nM) [%] | cell viability (Calu-3 [8]; 10000 nM) [%] | cell viability (U2OS [9]; 1 nM) [%] | cell viability (U2OS [9]; 10 nM) [%] | cell viability (U2OS [9]; 100 nM) [%] | cell viability (U2OS [9]; 1000 nM) [%] | cell viability (U2OS [9]; 10000 nM) [%] | cell viability (Caco-2 [10]; 1 nM) [%] | cell viability (Caco-2 [10]; 10 nM) [%] | cell viability (Caco-2 [10]; 100 nM) [%] | cell viability (Caco-2 [10]; 1000 nM) [%] | cell viability (Caco-2 [10]; 10000 nM) [%] | relative viability EC50 (HepG2 [11]) [µM] | relative viability EC50 (Vero E6 [12]) [µM] | relative viability EC50 (Calu-3 [13]) [µM] | relative viability EC50 (U2OS [14]) [µM] | relative viability EC50 (Caco-2 [15]) [µM]
1 | COc1ccc(NS(=O)(=O)c2ccc(N)cc2)nn1 [sulfamethoxypyridazine] | 0 | 0 | 0 | 0 | 0 | 99.7 | 114 | 110 | 97.2 | 98.8 | 103 | 100 | 97.1 | 98.6 | 104 | 93.3 | 93.5 | 100 | 97.4 | 95.6 | 99.9 | 94.3 | 97.4 | 101 | 99.7 | 97.9 | 99.8 | 94.8 | 101 | 98.2 | > 10 | > 10 | > 10 | > 10 | > 10
2 | CC(C)(C)c1ccc(S(=O)(=O)Nc2ccc(Cl)cc2C(=O)c2cc[n+]([O-])cc2)cc1 [vercirnon] | 0 | 0 | 0 | 0 | 0 | 93.4 | 93.7 | 104 | 106 | 89.4 | 98.2 | 97.4 | 94.7 | 95.6 | 106 | 95.4 | 99.9 | 99.7 | 93 | 96.3 | 97.7 | 97.5 | 97.1 | 104 | 104 | 89.6 | 97.4 | 87.4 | 110 | 100 | > 10 | > 10 | > 10 | > 10 | > 10
3 | Cn1nc(-c2ccc(C(F)(F)F)cc2)nc2c(=O)n(C)c(=O)nc1-2 [walrycin-B] | 11.6 | 3.5 | 3 | 5.7 | 10.2 | 108 | 101 | 84.7 | 51.3 | 1.6 | 102 | 100 | 102 | 101 | 34.4 | 109 | 108 | 108 | 98 | 48.5 | 105 | 107 | 100 | 98 | 1.8 | 96.6 | 99.2 | 99.3 | 61.8 | 7.5 | 0.88 | 3.26 | 2.87 | 3.02 | 1.15
4 | Cc1ccccc1NC(=N)Nc1ccccc1C [ditolylguanidine] | 0 | 0 | 0 | 0 | 0.2 | 100 | 96.1 | 97.7 | 94.3 | 97.9 | 96.4 | 104 | 95.6 | 100 | 95.6 | 103 | 104 | 95.8 | 103 | 90.4 | 98.8 | 104 | 94.6 | 102 | 94.7 | 96.5 | 100 | 103 | 95.6 | 88.3 | > 10 | > 10 | > 10 | > 10 | > 10
5 | c1coc(-c2nnc3sc(C4CCCCC4)nn23)c1 [cardionogen-1] | 4.9 | 0.3 | 0 | 0 | 2.2 | 98.7 | 97.1 | 99.4 | 88.3 | 44.6 | 98.3 | 97.1 | 95.5 | 98 | 86.6 | 109 | 97.4 | 109 | 102 | 97.1 | 95 | 100 | 95.9 | 97.8 | 93.3 | 100 | 94.7 | 104 | 81.1 | 89.7 | 1.69 | > 10 | > 10 | > 10 | > 10
6 | CCn1ccnc1CC1COc2ccccc2O1 (stereo not given) [imiloxan] | 0 | 0 | 0 | 0 | 0 | 90.6 | 91.6 | 94.5 | 93.2 | 116 | 92.5 | 99.8 | 95.9 | 90.7 | 102 | 97.9 | 98.5 | 99.7 | 107 | 94.4 | 101 | 98.4 | 99.2 | 101 | 104 | 106 | 87.6 | 92.9 | 104 | 102 | > 10 | > 10 | > 10 | > 10 | > 10
7 | CC1C=CC=CCCC=CC=CC=CC=CC(OC2OC(C)C(O)C(N)C2O)CC2OC(O)(CC(O)C(O)CCC(O)CC(O)CC(O)CC(=O)OC(C)C(C)C1O)CC(O)C2C(=O)O (stereo not given) [nystatin] | 0 | 0 | 0 | 0 | 0 | 96.7 | 101 | 98.7 | 96.8 | 110 | 92.9 | 93.6 | 94.7 | 96.1 | 107 | 106 | 84.5 | 94.6 | 104 | 109 | 102 | 99.3 | 99 | 102 | 104 | 98.4 | 98.5 | 97.4 | 97.4 | 103 | > 10 | > 10 | > 10 | > 10 | > 10
8 | O=C1NCN(c2ccccc2)C12CCN(CCCC(c1ccc(F)cc1)c1ccc(F)cc1)CC2 [fluspirilene] | 1.1 | 0 | 0 | 0 | 0 | 112 | 100 | 101 | 88.5 | 84.8 | 115 | 98.1 | 103 | 103 | 93.7 | 101 | 104 | 99.4 | 105 | 105 | 98.4 | 103 | 98.1 | 105 | 90.5 | 88.3 | 106 | 80.5 | 116 | 99 | > 10 | > 10 | > 10 | > 10 | > 10
9 | C[C@@H]1C[C@H]2[C@@H]3C[C@H](F)C4=CC(=O)C=C[C@]4(C)[C@@]3(F)[C@@H](O)C[C@]2(C)[C@@]1(O)C(=O)CO [flumethasone] | 0 | 0 | 0 | 0 | 0 | 96.8 | 109 | 96.1 | 91.2 | 91.8 | 107 | 105 | 97 | 105 | 101 | 95.5 | 100 | 106 | 92.2 | 101 | 96.6 | 93.5 | 98.1 | 92.1 | 92.7 | 84.6 | 94.5 | 106 | 94.1 | 103 | > 10 | > 10 | > 10 | > 10 | > 10
10 | CN=c1nc(-c2ccccc2)n(-c2ccccc2)s1 | 0 | 0 | 0 | 0 | 0 | 98.4 | 99.8 | 98 | 92.2 | 95.7 | 97.8 | 99.3 | 96.7 | 101 | 87.9 | 110 | 101 | 95.8 | 89.9 | 96 | 95.5 | 98.1 | 93.4 | 96.9 | 93.8 | 97.2 | 105 | 97 | 97.7 | 89 | > 10 | > 10 | > 10 | > 10 | > 10
11 | CC(=O)NCCNc1cc(Cl)nn2c(-c3cccc(S(=O)(=O)N(C)C)c3)c(C)nc12 [MI-14] | 4.4 | 0 | 0.8 | 0 | 0.9 | 102 | 89.4 | 87.4 | 77.2 | 78.8 | 95.6 | 98 | 96.5 | 93.2 | 93.5 | 99.1 | 96.2 | 98.2 | 102 | 75.8 | 98.8 | 101 | 99.6 | 98.2 | 89.5 | 99.1 | 92.2 | 99.5 | 93.1 | 83.3 | > 10 | > 10 | > 10 | > 10 | > 10
12 | NC(=O)[C@@H]1CC[C@@H]2CN1C(=O)N2OS(=O)(=O)O [avibactam] | 0 | 0 | 0 | 0 | 0 | 114 | 109 | 90.9 | 98.4 | 97.8 | 95 | 96.5 | 97.6 | 97.1 | 98.6 | 94.8 | 81.7 | 104 | 91.3 | 104 | 97.2 | 94.6 | 101 | 96.9 | 98.7 | 101 | 92.5 | 92.5 | 95.7 | 92.7 | > 10 | > 10 | > 10 | > 10 | > 10
13 | Cc1cc(Oc2ccc3nc(COc4ccc(CC5SC(=O)NC5=O)cc4)n(C)c3c2)cc(C)c1N (stereo not given) [efatutazone] | 0 | 3.6 | 0 | 0 | 0 | 105 | 99.5 | 106 | 104 | 103 | 95.4 | 86 | 87.5 | 87.1 | 85.3 | 106 | 102 | 104 | 105 | 99.2 | 98.3 | 104 | 97.5 | 106 | 97.6 | 102 | 97.6 | 97.1 | 97.3 | 97.4 | > 10 | > 10 | > 10 | > 10 | > 10
